The values below come from patent publication US8247556B2, “Method for preparing 6-substituted-7-aza-indoles” (Amgen Inc., priority 2005, dated 2012).

Assay [1] has as its system VEGF-stimulated HUVEC proliferation (Human Umbilical Vein Endothelial cells). In words: HUVEC Proliferation Assay. It is filed as cell-based. To be noted: VEGF 50 ng/mL, 72 h, CyQuant fluorescent dye, read-out: inhibited VEGF-stimulated HUVEC proliferation at a level. A digest of the protocol:
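HUVEC (passage 2–3) were seeded in DMEM+10% FBS for 22 h, then pre-incubated 2–3 h with 5-point, 5-fold compound dilutions (0.25% DMSO). They were then stimulated with VEGF (50 ng/mL final) for 72 h at 37 °C. Proliferation was read by CyQuant fluorescence (485/530 nm) after freeze-thaw, and IC50 came from a 4-parameter fit.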

The next assay concerns the target T1, CYP 3A4 (Homo sapiens, UniProt P08684).
T1 construct: followed by 222.2 ml of 20 mg/mL HLM (BD Gentest); tissue BD Gentest; host or cells: human liver microsomes
In words: Human Liver Microsome CYP 3A4 Inhibition. To be noted: human liver microsomes, midazolam substrate; read-out: inhibited CYP3A4 microsomes, IC50. It is filed as in vitro ADME.

The target of a further assay is T2, CYP 2D6 (Homo sapiens, UniProt P10635).
T2 construct: followed by 555.6 ml of 20 mg/mL HLM (BD Gentest); tissue BD Gentest; host or cells: human liver microsomes
In words: Human Liver Microsome CYP 2D6 Inhibition. It is filed as in vitro ADME. To be noted: human liver microsomes, bufuralol substrate; read-out: inhibited CYP2D6 microsomes, IC50. A digest of the protocol: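 Pooled human liver microsomes with bufuralol in potassium phosphate pH 7.4, preincubated with inhibitor at 37 °C; reaction started with NADPH, quenched after 5 min with 0.1% TFA in acetonitrile. 1′-OH-bufuralol quantified by LC-MS with deuterated internal standard; IC50 determined, quinidine 500 nM as control.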

T2 sequence (P10635 whole entry): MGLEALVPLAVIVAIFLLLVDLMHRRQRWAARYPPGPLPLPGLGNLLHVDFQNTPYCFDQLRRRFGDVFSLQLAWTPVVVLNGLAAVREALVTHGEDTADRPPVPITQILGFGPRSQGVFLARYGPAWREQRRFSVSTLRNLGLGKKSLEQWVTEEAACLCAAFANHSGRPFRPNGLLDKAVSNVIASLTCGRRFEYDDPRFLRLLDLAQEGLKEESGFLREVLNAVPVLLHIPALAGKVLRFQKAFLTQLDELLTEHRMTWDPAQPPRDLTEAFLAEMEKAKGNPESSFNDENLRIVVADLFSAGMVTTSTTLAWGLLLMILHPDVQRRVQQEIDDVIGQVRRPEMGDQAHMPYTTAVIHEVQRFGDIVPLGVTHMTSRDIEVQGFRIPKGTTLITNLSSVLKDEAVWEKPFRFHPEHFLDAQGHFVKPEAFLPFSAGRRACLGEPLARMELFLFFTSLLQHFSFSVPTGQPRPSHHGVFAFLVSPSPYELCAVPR
T1 sequence (P08684 whole entry): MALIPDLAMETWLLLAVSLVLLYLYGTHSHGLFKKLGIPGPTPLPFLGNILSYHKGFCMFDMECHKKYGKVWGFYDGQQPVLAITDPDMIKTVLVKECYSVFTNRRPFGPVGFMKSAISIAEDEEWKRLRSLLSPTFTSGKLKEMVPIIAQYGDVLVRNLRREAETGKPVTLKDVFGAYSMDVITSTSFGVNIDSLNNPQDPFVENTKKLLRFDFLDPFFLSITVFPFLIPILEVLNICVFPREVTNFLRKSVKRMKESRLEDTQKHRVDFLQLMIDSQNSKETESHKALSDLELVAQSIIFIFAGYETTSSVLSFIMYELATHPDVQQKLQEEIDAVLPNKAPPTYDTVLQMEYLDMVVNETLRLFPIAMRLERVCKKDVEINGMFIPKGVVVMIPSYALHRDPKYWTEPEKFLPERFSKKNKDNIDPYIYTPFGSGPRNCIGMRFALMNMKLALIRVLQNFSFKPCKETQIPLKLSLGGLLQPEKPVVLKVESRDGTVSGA

Turning to `CC(C)(C)c1ccc(NC(=O)c2cc(F)cnc2NCc2ccnc3[nH]ncc23)cc1` [Example 125, N-(4-(1,1-Dimethylethyl)phenyl)-5-fluoro-2-((1H-pyrazolo[3,4-b]pyridin-4-ylmethyl)amino)-3-pyridinecarboxamide], the figures for the IC50 (in assay [1]; at CYP 3A4; at CYP 2D6) were less than 0.5 µM, more than 20 µM and more than 20 µM, respectively.
As to `O=C(Nc1ccc(OC(F)(F)F)cc1)c1cc(F)cnc1NCc1ccnc2[nH]ncc12` [Example 126, 5-Fluoro-2-((1H-pyrazolo[3,4-b]pyridin-4-ylmethyl)amino)-N-(4-((trifluoromethyl)oxy)phenyl)-3-pyridinecarboxamide], the IC50 in assay [1] is less than 0.5 µM; at CYP 3A4 it was more than 20 µM; at CYP 2D6, more than 20 µM.
As to `CC1(C)CNc2cc(NC(=O)c3cc(F)cnc3NCc3ccnc4[nH]ccc34)ccc21` [Example 130, N-(3,3-Dimethyl-2,3-dihydro-1H-indol-6-yl)-5-fluoro-2-((1H-pyrrolo[2,3-b]pyridin-4-ylmethyl)amino)-3-pyridinecarboxamide], the figures for the IC50 (in assay [1]; at CYP 3A4; at CYP 2D6) were less than 0.5 µM, more than 20 µM and more than 20 µM, respectively.
